Earlier results in patent publication US20250311762A1, “FORMULATION AND METHOD FOR AN EXERCISE SUPPORTING NUTRITIONAL SUPPLEMENT” (BullFit, LLC., priority 2024, published 2025).

Tests used:
[1] = test system: anaerobic strength performance; conditions: athletes supplementing with Betaine
cognitive function = conditions: 2 g per day for 5 days during a demanding military combat training course

## C[N+](C)(C)CC(=O)[O-] [Betaine, trimethylglycine]
[1]
  squat, bench press, and other activities: increased their squat, bench press, and other activities

## N[C@@H](Cc1ccc(O)cc1)C(=O)O [L-tyrosine, L-Tyrosine]
Cognitive function
  cognitive function relative to placebo: improved various aspects of cognitive function relative to placebo
